Read-outs that look alike come from different tables or passages of the source.
How the values were obtained:
human orexin-2 receptor = human orexin-2 receptor (Homo sapiens (Human), UniProt O43614); assay: In vitro assay: intracellular calcium measurements (FLIPR), antagonistic activity; format: cell-based; details: CHO cells, 3 nM orexin-A, marked values are geometric means of n = 2-6, read-out: IC50 OX2
human orexin-1 receptor = human orexin-1 receptor (Homo sapiens (Human), UniProt O43613); assay: as above; format: cell-based; details: CHO cells, 3 nM orexin-A, marked values are geometric means of n = 2-6, read-out: IC50 OX1
Sequence of human orexin-1 receptor (O43613 whole entry): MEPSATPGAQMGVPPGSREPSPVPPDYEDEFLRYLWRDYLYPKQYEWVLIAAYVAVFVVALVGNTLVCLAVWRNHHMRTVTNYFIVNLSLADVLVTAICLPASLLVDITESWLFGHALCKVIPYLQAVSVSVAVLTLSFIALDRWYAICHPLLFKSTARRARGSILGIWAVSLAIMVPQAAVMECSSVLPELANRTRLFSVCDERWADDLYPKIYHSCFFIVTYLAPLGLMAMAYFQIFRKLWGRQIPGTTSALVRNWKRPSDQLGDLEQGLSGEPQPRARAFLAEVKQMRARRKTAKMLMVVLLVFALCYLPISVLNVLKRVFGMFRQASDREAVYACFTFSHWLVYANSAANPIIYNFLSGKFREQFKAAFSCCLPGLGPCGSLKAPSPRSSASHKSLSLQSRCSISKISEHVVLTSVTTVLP

[1] = compound incubation time of 10 min

Sequence of human orexin-2 receptor (O43614 whole entry): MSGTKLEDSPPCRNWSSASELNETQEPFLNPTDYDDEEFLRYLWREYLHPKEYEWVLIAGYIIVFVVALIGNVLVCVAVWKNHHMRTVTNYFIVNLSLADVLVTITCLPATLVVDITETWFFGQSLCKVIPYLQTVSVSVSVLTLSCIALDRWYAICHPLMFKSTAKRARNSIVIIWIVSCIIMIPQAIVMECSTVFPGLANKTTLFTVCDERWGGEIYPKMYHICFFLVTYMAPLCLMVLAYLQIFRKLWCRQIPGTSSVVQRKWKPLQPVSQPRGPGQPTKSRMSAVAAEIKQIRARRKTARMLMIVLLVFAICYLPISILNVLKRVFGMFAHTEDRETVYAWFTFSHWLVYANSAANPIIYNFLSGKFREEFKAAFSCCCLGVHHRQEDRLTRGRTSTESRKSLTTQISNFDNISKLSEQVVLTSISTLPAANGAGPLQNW

Compound	IC50 (human orexin-2 receptor; compound incubation 120 min) [µM]	IC50 (human orexin-1 receptor; compound incubation 120 min) [µM]	IC50 (human orexin-2 receptor; [1]) [µM]	IC50 (human orexin-1 receptor; [1]) [µM]
COc1ccc2ncoc2c1C1CCCC(=O)N1Cc1ccc2ccccc2n1 (centres unmarked) [Example 280, 6-(6-methoxybenzo[d]oxazol-7-yl)-1-(quinolin-2-ylmethyl)piperidin-2-one]	1.8	1.82		
CCOc1cc(F)ccc1[C@@H]1C[C@@H](Cl)C(=O)N1Cc1ccc(OC(F)(F)F)cc1 (racemic) [Example 341]	1.63	3.34		
COc1cccc(OC)c1C1CCCC(=O)N1Cc1ccccc1Oc1ccccc1 (centres unmarked) [Example 191, 6-(2,6-dimethoxyphenyl)-1-(2-phenoxybenzyl)piperidin-2-one]			0.05	0.373
COc1cccc(OC)c1C1CCCC(=O)N1Cc1cccc(-c2ccccn2)n1 (centres unmarked) [Example 38, 1-([2,2′-bipyridin]-6-ylmethyl)-6-(2,6-dimethoxyphenyl)piperidin-2-one]	0.087	0.153		
COc1ccnc(OC)c1C1CCCC(=O)N1Cc1cccc(-c2nccs2)c1 (centres unmarked) [Example 53, 6-(2,4-dimethoxypyridin-3-yl)-1-(3-(thiazol-2-yl)benzyl)piperidin-2-one]	0.022	0.033		
CCCOc1ccc(CN2C(=O)CCCC2c2c(OC)cccc2OC)cc1 (centres unmarked) [Example 207, 6-(2,6-dimethoxyphenyl)-1-(4-propoxybenzyl)piperidin-2-one]			0.035	0.169
COc1cccc(OC)c1C1CCCC(=O)N1Cc1cnc(OC(F)F)c(Cl)c1 (centres unmarked) [Example 5, 1-((5-chloro-6-(difluoromethoxy)pyridin-3-yl)methyl)-6-(2,6-dimethoxyphenyl)piperidin-2-one]	0.038	0.224		
CCOc1cccc(F)c1C1CC(C)C(=O)N1Cc1ccnc(-n2cccn2)c1 (centres unmarked) [Example 381, 1-((2-(1H-pyrazol-1-yl)pyridin-4-yl)methyl)-5-(2-ethoxy-6-fluorophenyl)-3-methylpyrrolidin-2-one]	0.009	0.418		
CCOc1ccccc1[C@@H]1C[C@H](Cl)C(=O)N1Cc1ccc(OC(F)(F)F)cc1 (racemic) [Example 304, rac-(3S*,5S*)-3-chloro-5-(2-ethoxyphenyl-1-(4-(trifluoromethoxy)benzyl)pyrrolidin-2-one]	0.129	0.615		
COc1cccc(OC(C)C)c1C1CCCC(=O)N1Cc1ccc(OC(F)(F)F)cc1 (centres unmarked) [Example 230, 6-(2-isopropoxy-6-methoxyphenyl)-1-(4-(trifluoromethoxy)benzyl)piperidin-2-one]			0.085	0.363
COc1cccc(OC)c1C1CCCC(=O)N1Cc1cccc2ccccc12 (centres unmarked) [Example 15, 6-(2,6-dimethoxyphenyl)-1-(naphthalen-1-ylmethyl)piperidin-2-one]	0.023	0.21		
COc1cccc(OC)c1C1CCCCC(=O)N1Cc1cccc(N2CCCC2)c1 (centres unmarked) [Example 93, 7-(2,6-dimethoxyphenyl)-1-(3-(pyrrolidin-1-yl)benzyl)azepan-2-one]	0.016	0.003		
COc1cccc(OC)c1C1CCCC(=O)N1C(C)c1cnc(OC(F)F)c(Cl)c1 (centres unmarked) [Example 185, 1-(1-(5-chloro-6-(difluoromethoxy)pyridin-3-yl)ethyl)-6-(2,6-dimethoxyphenyl)piperidin-2-one]			0.034	0.323
COc1cccc(OC)c1[C@@H]1C[C@H](Cl)C(=O)N1Cc1ccc(OC(F)(F)F)cc1 (racemic) [Example 261, rac-(3S*,5S*)-3-chloro-5-(2,6-dimethoxyphenyl)-1-(4-(trifluoromethoxy)benzyl)pyrrolidin-2-one]			0.041	0.065
COc1cccc(OC)c1C1CCCCC(=O)N1Cc1cnc(OC(F)F)c(Cl)c1 (centres unmarked) [Example 89, 1-((5-chloro-6-(difluoromethoxy)pyridin-3-yl)methyl)-7-(2,6-dimethoxyphenyl)azepan-2-one]	0.085	0.385		
COc1cccc(OC)c1C1CC(C)C(=O)N1Cc1ccc2ccccc2n1 (centres unmarked) [Example 348, 5-(2,6-dimethoxyphenyl)-3-methyl-1-(quinolin-2-ylmethyl)pyrrolidin-2-one]	0.474	0.206		
COc1cccc(OC)c1C1CCC(=O)N1Cc1cnc(OC(F)F)c(Cl)c1 (centres unmarked) [Example 112, 1-((5-chloro-6-(difluoromethoxy)pyridin-3-yl)methyl)-5-(2,6-dimethoxyphenyl)pyrrolidin-2-one]			0.107	0.646
COc1ccc2ncoc2c1C1CCCC(=O)N1Cc1cccc(-c2csc(C)n2)c1 (centres unmarked) [Example 455, 6-(6-methoxybenzo[d]oxazol-7-yl)-1-(3-(2-methylthiazol-4-yl)benzyl)piperidin-2-one]	0.102	0.057		
CCOc1cccc(F)c1[C@@H]1C[C@@H](Cl)C(=O)N1Cc1ccc(OC(F)(F)F)cc1 (racemic) [Example 333, rac-(3R*,5S*)-3-chloro-5-(2-ethoxy-6-fluorophenyl)-1-(4-(trifluoromethoxy)benzyl)pyrrolidin-2-one]	0.184	0.965		

Compound	IC50 (human orexin-2 receptor; compound incubation 120 min) [µM]	IC50 (human orexin-1 receptor; compound incubation 120 min) [µM]	IC50 (human orexin-2 receptor; [1]) [µM]	IC50 (human orexin-1 receptor; [1]) [µM]
COc1ccnc(OC)c1C1CCCC(=O)N1Cc1ccc(F)c(-c2ccccn2)c1 (centres unmarked) [Example 59, 6-(2,4-dimethoxypyridin-3-yl)-1-(4-fluoro-3-(pyridin-2-yl)benzyl)piperidin-2-one]	0.135	0.207		
COc1cccc(OC)c1C1CCCCC(=O)N1Cc1ccccc1-c1ccccc1 (centres unmarked) [Example 78, 1-([1,1′-biphenyl]-2-ylmethyl)-7-(2,6-dimethoxyphenyl)azepan-2-one]	0.806	0.323		
COc1ccnc(OC)c1C1CC(C)C(=O)N1Cc1csc(-c2ccc(C)cc2)n1 (centres unmarked) [Example 350, 5-(2,4-dimethoxypyridin-3-yl)-3-methyl-1-((2-(p-tolyl)thiazol-4-yl)methyl)pyrrolidin-2-one]	0.051	0.665		
CC[C@H]1C[C@@H](c2c(OC)cccc2OC)N(Cc2ccc(OC(F)(F)F)cc2)C1=O (racemic) [Example 263, rac-(3S*,5S*)-5-(2,6-dimethoxyphenyl)-3-ethyl-1-(4-(trifluoromethoxy)benzyl)pyrrolidin-2-one]			3.61	0.619
COc1cccc(OC)c1C1CCC(=O)N1Cc1cccc(-c2cccnc2)c1 (centres unmarked) [Example 115, 5-(2,6-dimethoxyphenyl)-1-(3-(pyridin-3-yl)benzyl)pyrrolidin-2-one]	0.249	0.217		
COc1cccc(OC)c1C1CCCC(=O)N1Cc1cccc(N2CCCCC2)c1 (centres unmarked) [Example 13, 6-(2,6-dimethoxyphenyl)-1-(3-(piperidin-1-yl)benzyl)piperidin-2-one]	0.046	0.022		
COc1cccc(OC)c1C1CCCCC(=O)N1Cc1cccc(-n2cccn2)c1 (centres unmarked) [Example 97, 1-(3-(1H-pyrazol-1-yl)benzyl)-7-(2,6-dimethoxyphenyl)azepan-2-one]	0.02	0.005		
COc1cccc(C(F)(F)F)c1C1CCCC(=O)N1Cc1ccc(OC(F)(F)F)cc1 (centres unmarked) [Example 223, 6-(2-methoxy-6-(trifluoromethyl)phenyl)-1-(4-(trifluoromethoxy)benzyl)piperidin-2-one]			2.95	> 21.6
COc1cc(Cl)cc(OC)c1C1CCCC(=O)N1Cc1ccc(OC(F)(F)F)cc1 (centres unmarked) [Example 167, 6-(4-chloro-2,6-dimethoxyphenyl)-1-(4-(trifluoromethoxy)benzyl)piperidin-2-one]			0.028	0.231
COc1cccc(OCCCO)c1C1CCCC(=O)N1Cc1ccc(OC(F)(F)F)cc1 (centres unmarked) [Example 209, 6-(2-(3-hydroxypropoxy)-6-methoxyphenyl)-1-(4-(trifluoromethoxy)benzyl)piperidin-2-one]			0.286	1.06
COc1cccc(OC)c1C1CCC(=O)N1Cc1ccc(Oc2ccccc2)cc1 (centres unmarked) [Example 118, 5-(2,6-dimethoxyphenyl)-1-(4-phenoxybenzyl)pyrrolidin-2-one]	0.058	0.233		
COc1cccc(OC)c1C1CC(C)C(=O)N1Cc1cccc(-c2ccccn2)c1F (centres unmarked) [Example 146, 5-(2,6-dimethoxyphenyl)-1-(2-fluoro-3-(pyridin-2-yl)benzyl)-3-methylpyrrolidin-2-one]	0.23	0.039		
COc1cccc(OC)c1C1CCCC(=O)N1Cc1cccc(-n2cccn2)c1 (centres unmarked) [Example 19, 1-(3-(1H-pyrazol-1-yl)benzyl)-6-(2,6-dimethoxyphenyl)piperidin-2-one]	0.026	0.025		
COc1cccc(OC)c1C1CC(C)C(=O)N1Cc1ccnc(OC(F)F)c1 (centres unmarked) [Example 202, 1-((2-(difluoromethoxy)pyridin-4-yl)methyl)-5-(2,6-dimethoxyphenyl)-3-methylpyrrolidin-2-one]			0.923	0.224
COc1cccc(F)c1C1CC(C)C(=O)N1Cc1cccc(-c2ncc(C)s2)c1 (centres unmarked) [Example 364, 5-(2-fluoro-6-methoxyphenyl)-3-methyl-1-(3-(5-methylthiazol-2-yl)benzyl)pyrrolidin-2-one]	0.011	0.121		
COc1cccc(OC)c1C1CC(C)C(=O)N1Cc1ccc2c(ccn2C)c1 (centres unmarked) [Example 391, 5-(2,6-dimethoxyphenyl)-3-methyl-1-((1-methyl-1H-indol-5-yl)methyl)pyrrolidin-2-one]	0.529	0.175		
COc1cccc(OC)c1[C@@H]1C[C@@H](O)C(=O)N1Cc1ccc2oc3ccccc3c2c1 (racemic) [Example 357, rac-(3R*,5S*)-1-(dibenzo[b,d]furan-2-ylmethyl)-5-(2,6-dimethoxyphenyl)-3-hydroxypyrrolidin-2-one]	0.004	0.02		
COc1cccc(OC)c1C1CC(C)C(=O)N1Cc1ccc2nc(C)sc2c1 (centres unmarked) [Example 151, 5-(2,6-dimethoxyphenyl)-3-methyl-1-((2-methylbenzo[d]thiazol-6-yl)methyl)pyrrolidin-2-one]	0.703	0.125		

— US9242970B2 (ACTELION PHARMACEUTICALS LTD., priority 2010, dated 2016)
